Source: ChEMBL document CHEMBL2321790, “1,4,2-Benzo/pyridodithiazine 1,1-dioxides structurally related to the ATP-sensitive potassium channel openers 1,2,4-Benzo/pyridothiadiazine 1,1-dioxides exert a myorelaxant activity linked to a distinct mechanism of action” (J Med Chem, 2013)

Experiments:
[1] = Activation of ATP-sensitive potassium channel opening in albino rat aorta rings assessed as relaxation of KCl-induced contraction of aorta rings; assay type: tissue-based
[2] = species: Rattus norvegicus; assay: Activation of ATP-sensitive potassium channel opening in albino rat pancreatic islets assessed as inhibition of glucose-induced insulin release measured as residual insulin release at 10 uM after 90 mins by radioimmunoassay
[3] = system: Aorta; assay: Myorelaxant activity in albino rat aorta rings assessed as relaxation of KCl-induced contraction of aorta rings; assay type: functional, tissue-based
[4] = system: Aorta; assay: Myorelaxant activity in albino rat aorta rings assessed as relaxation of 80 mM KCl-induced contraction of aorta rings; assay type: functional, tissue-based
[5] = system: Aorta; assay: Myorelaxant activity in albino rat aorta rings assessed as relaxation of KCl-induced contraction of aorta rings in presence of 10 uM KATP channel blocker glibenclamide; assay type: functional, tissue-based
[6] = system: Aorta; assay: Myorelaxant activity in albino rat aorta rings assessed as relaxation of KCl-induced contraction of aorta rings in presence of 1 uM KATP channel blocker glibenclamide; assay type: functional, tissue-based
[7] = system: Aorta; assay: Myorelaxant activity in albino rat aorta rings assessed as relaxation of 30 mM KCl-induced contraction of aorta rings; assay type: functional, tissue-based
[8] = Dissociation constant, pKa of the compound in water at 25 degC; assay type: physicochemical

SMILES	EC50 [1] [µM]	Activity [2] [%]	also measured
O=[N+]([O-])c1ccc2c(c1)S(=O)(=O)N=C(NCc1ccccc1)S2	> 30	77.7	–
C[C@H](NC1=NS(=O)(=O)c2cc(C(F)(F)F)ccc2S1)c1ccccc1	11.3	–	–
CC(C)NC1=NS(=O)(=O)c2cccc(Cl)c2S1	> 30	82.4	–
COc1ccc(CCN(C)CCCC(C#N)(c2ccc(OC)c(OC)c2)C(C)C)cc1OC (configuration not stated) [VERAPAMIL]	–	–	Activity [3]: Dose-dependent effect; EC50 [4]: 0.052 µM; EC50 [5]: 0.35 µM; EC50 [6]: 0.038 µM; EC50 [7]: 0.031 µM
CC(C)NC1=NS(=O)(=O)c2cnccc2S1	190	90.6	–
O=[N+]([O-])c1ccc2c(c1)S(=O)(=O)N=C(Nc1ccccc1)S2	> 200	89.5	–
CC(C)CNC1=NS(=O)(=O)c2cc([N+](=O)[O-])ccc2S1	69.1	110	–
CC(NC1=NS(=O)(=O)c2cc(S(C)(=O)=O)ccc2S1)c1ccccc1 (configuration not stated)	> 30	83.4	–
CC(SC1=NS(=O)(=O)c2ccc(Cl)cc2N1)c1ccccc1 (configuration not stated)	5.7	76.3	–
O=S1(=O)N=C(NC2CCCC2)Sc2ccc(C(F)(F)F)cc21	48.7	89.5	–
CC(NC1=NS(=O)(=O)c2cc([N+](=O)[O-])ccc2S1)c1ccccc1 (configuration not stated)	15.9	91.5	–
CC(C)NC1=NS(=O)(=O)c2ccc(Cl)cc2S1	> 30	78.9	–
CC(C)NC1=NS(=O)(=O)c2cc(Cl)ccc2S1	> 100	92.2	pKa [8]: 9.76
CC(C)NC1=NS(=O)(=O)c2cc(S(C)(=O)=O)ccc2S1	> 200	76.3	–
C[C@@H](NC1=NS(=O)(=O)c2cc(C(F)(F)F)ccc2S1)c1ccccc1	> 30	–	–
O=S1(=O)N=C(Nc2ccccc2)Sc2ccc(C(F)(F)F)cc21	13.7	67.8	–
CC(SC1=NS(=O)(=O)c2cccc(Cl)c2N1)c1ccccc1 (configuration not stated)	> 30	79.2	–
CC(C)NC1=NS(=O)(=O)c2cc(C(=O)O)ccc2S1	> 200	68.5	–
CC(C)NC1=NS(=O)(=O)c2cc(C#N)ccc2S1	152	86.2	–
CC(C)NC1=NS(=O)(=O)c2c[n+]([O-])ccc2S1	> 200	76.7	–

SMILES	EC50 [1] [µM]	Activity [2] [%]	also measured
CC(NC1=NS(=O)(=O)c2cc(C(F)(F)F)ccc2S1)c1ccccc1 (racemic) [listing 1 of 2 here]	–	97	–
CC(SC1=NS(=O)(=O)c2cc(Cl)ccc2N1)c1ccccc1 (configuration not stated)	5.4	71.1	–
CC(NC1=NS(=O)(=O)c2cc(C(F)(F)F)ccc2S1)c1ccccc1 (stereo in doubt; 6t)	–	97	–
CC(C)NC1=NS(=O)(=O)c2cc(Cl)ccc2N1	31.8	4.8	–
CC1=Nc2ccc(Cl)cc2S(=O)(=O)N1 [DIAZOXIDE]	26.2	73.9	EC50 [4]: > 300 µM; EC50 ([5]; read-out: EC50): 280 µM; EC50 [6]: 154 µM; EC50 [7]: 23.8 µM
CC(NC1=NS(=O)(=O)c2cc(C(F)(F)F)ccc2S1)c1ccccc1 (racemic) [listing 2 of 2 here]	11.6	–	EC50 [4]: 14.9 µM; EC50 ([5]; read-out: EC50): 15.5 µM; EC50 [6]: 17.3 µM; EC50 [7]: 16.2 µM
CCNC1=NS(=O)(=O)c2cc([N+](=O)[O-])ccc2S1	> 30	100	–
CC(SC1=NS(=O)(=O)c2cc(F)ccc2N1)c1ccccc1 (racemic)	–	–	EC50 [4]: 27.5 µM; EC50 ([5]; read-out: EC50): 36.2 µM; EC50 [6]: 33.3 µM; EC50 [7]: 13.2 µM
CC(SC1=NS(=O)(=O)c2cc(I)ccc2N1)c1ccccc1 (configuration not stated)	5.4	81.4	–
CC(SC1=NS(=O)(=O)c2cc(Br)ccc2N1)c1ccccc1 (configuration not stated)	11.9	91.7	–
CC(SC1=NS(=O)(=O)c2cc(F)ccc2N1)c1ccccc1 (configuration not stated) [listing 1 of 2 here]	–	95.5	–
O=[N+]([O-])c1ccc2c(c1)S(=O)(=O)N=C(NC1CCCC1)S2	42.6	100	–
CC(C)NC1=NS(=O)(=O)c2cc([N+](=O)[O-])ccc2S1	176	97.7	–
CCC(C)NC1=NS(=O)(=O)c2cc([N+](=O)[O-])ccc2S1 (configuration not stated)	59.9	110	–
CS(=O)(=O)c1ccc2c(c1)S(=O)(=O)N=C(Nc1ccccc1)S2	> 30	92.4	–
O=[N+]([O-])c1ccc2c(c1)S(=O)(=O)N=C(NC1CC1)S2	> 200	88.2	–
CC(SC1=NS(=O)(=O)c2cc(F)ccc2N1)c1ccccc1 (configuration not stated) [listing 2 of 2 here]	15	–	–
O=[N+]([O-])c1ccc2c(c1)S(=O)(=O)N=C(NCC1CC1)S2	61.1	90.2	–
CCC(C)NC1=NS(=O)(=O)c2cc(C(F)(F)F)ccc2S1 (configuration not stated)	38.8	110	–
CC(C)NC1=NS(=O)(=O)c2cc(C(F)(F)F)ccc2S1	53.7	108	–
